The values that follow come from ChEMBL document CHEMBL3507680, “University of Dundee, Gates Library screen for HepG2 cell viability”.

The nature of this data set: Human HepG2 cell viability assay in 384 well format. In kind it is toxicity, cell-based. Also noted: dose 125 nL, time 70.5 hour; concentration not given beside the values. The following applies: HepG2 cells, read-out: Inhibition.
As for `Cc1noc(CN(Cc2ccc3c(c2)OCO3)C2CCCC2)n1`, the cytotoxicity at 70.5 h is -13%.

As for `Cc1scc(C(=O)N2CCC3(CC(=O)NC3=O)C2)c1-c1ccccc1` (stereo unspecified), the cytotoxicity at 70.5 h was -11%.

Turning to `Cc1nn(C)c(C)c1CN(C)S(=O)(=O)c1c(C)n[nH]c1C`, the cytotoxicity at 70.5 h was -5.08%.

Turning to `COCCc1noc(-c2cn(Cc3ccc(OC)cc3)nn2)n1`, the cytotoxicity at 70.5 h worked out at 7.6%.

Turning to `Cc1cc(O)c(OCC(=O)Nc2nc3c(s2)CCCCC3)cn1`, the cytotoxicity at 70.5 h was -1.73%.

As to `Cc1nc(C2(O)CCCNCC2)sc1CCOc1ccccc1F` (stereo unspecified), the cytotoxicity at 70.5 h stood at 2.34%.

As to `CN(C)C(=O)CNC(=O)Nc1cccc(Cl)c1SC(F)F`, the cytotoxicity at 70.5 h was -4.52%.

On to `CCc1nnc(N2C[C@@H](NC(C)=O)[C@H](c3ccc(C)o3)C2)s1`, for which the cytotoxicity at 70.5 h is 2.74%.

As for `Cc1cnc(C(=O)N2CCCC(n3cccn3)C2)cn1` (stereo unspecified), the cytotoxicity at 70.5 h was -1.48%.

With `CC1(C(=O)N2CCOCC2)CN(CC2CCOCC2)CCO1` (stereo unspecified), the cytotoxicity at 70.5 h is -0.606%.

In the case of `Cc1nn(-c2ccccc2)c2c1C(c1ccc(C(=O)O)cc1)CC(=O)N2` (stereo unspecified), the cytotoxicity at 70.5 h was -3.05%.

On to `Cc1nc2c(c(NC3CC3)n1)CCN(C(=O)C1(C#N)CC1)CC2`, for which the cytotoxicity at 70.5 h was -16.3%.

In the case of `CCN1CCN(C(=O)C(C)N2CCc3cncnc3C2)CC1` (stereo unspecified), the cytotoxicity at 70.5 h is -4.42%.

As for `Cc1ccc(CN2CC[C@@H](O)[C@@H]2Cc2ccccc2)o1`, the cytotoxicity at 70.5 h turned out to be 34%.

Turning to `CCCc1nc(C)c(C(=O)NS(=O)(=O)c2ccc(C#N)cc2)s1`, the cytotoxicity at 70.5 h was -5.99%.

Consider `NCc1ccccc1Sc1ccc(O)cc1`, for which the cytotoxicity at 70.5 h is -8.8%.

Regarding `COc1cc(C)c(S(=O)(=O)NCc2cccnc2N(C)C)c(C)c1`, the cytotoxicity at 70.5 h is -5.54%.

With `CC(=O)c1ccc(N2CCCC(CO)(Cc3ccccc3C)C2)nc1` (stereo unspecified), the cytotoxicity at 70.5 h is -3.1%.

For the compound `COc1cccc(CNC(=O)C(c2cccc(F)c2)N2CCOCC2)c1` (stereo unspecified), the cytotoxicity at 70.5 h worked out at 10.7%.

For `O=C(NC1CCC1)C1CCC2(CN(C(=O)c3ccco3)C2)O1` (stereo unspecified), the cytotoxicity at 70.5 h was -13.3%.

As to `CNC(=O)[C@H]1CC[C@@H]2[C@@H](CCN2C(=O)N(C)C)O1`, the cytotoxicity at 70.5 h was -5.62%.

On to `Cc1ccnc(NC(=O)c2[nH]nc(C(C)C)c2Br)c1`, for which the cytotoxicity at 70.5 h amounted to 19.7%.

For `COc1ccccc1CC(=O)N1CCC(OCc2cccnc2)CC1`, the cytotoxicity at 70.5 h is -13.8%.

As for `Cc1csc([C@@H]2C[C@@H]3CCN(Cc4cc(C)on4)C[C@H]3O2)n1`, the cytotoxicity at 70.5 h was -6.2%.

For `Cc1nnsc1C(=O)N1CCN(CC2CC2)[C@@H]2CS(=O)(=O)C[C@@H]21`, the cytotoxicity at 70.5 h was -13.8%.

Regarding `CN(C(=O)Cc1ccc(NC(=O)NC2CCC2)cc1)c1ccccc1`, the cytotoxicity at 70.5 h worked out at 38.2%.

For the compound `Cc1ccc(C(C(=O)N(C)CCc2cn[nH]c2)N(C)C)cc1` (stereo unspecified), the cytotoxicity at 70.5 h was -8.45%.

Consider `CCn1nc(C)c2nc(C)nc(NCCc3ccc(C)cc3)c21`, for which the cytotoxicity at 70.5 h is 34.1%.

With `CN(C(=O)c1cccc(NCC(=O)O)c1)C(C1CC1)C1CC1`, the cytotoxicity at 70.5 h is -8.7%.

On to `O=C(CO)N1CCCC(N2CCN(c3ccccc3F)CC2)C1` (stereo unspecified), for which the cytotoxicity at 70.5 h is -0.739%.

Turning to `Cc1ccc(C(=O)N2CCCC3(CCCC(=O)N3C)C2)cc1F` (stereo unspecified), the cytotoxicity at 70.5 h is -4.57%.

On to `CN1CCC2(CC1)CCN(C(=O)c1onc3ccccc13)C2`, for which the cytotoxicity at 70.5 h was -6.04%.

Consider `COc1ccc(CNCCc2cc(F)cc3c2OCOC3)c(OC)c1`, for which the cytotoxicity at 70.5 h is 25.5%.

For the compound `Cc1nc(CC(=O)N(C)C2CCCN(CCc3ccccc3)C2)cs1` (stereo unspecified), the cytotoxicity at 70.5 h was -4.36%.

On to `Cn1cc(CN2CC3(CCN(C(=O)c4cscn4)C3)C2)cn1`, for which the cytotoxicity at 70.5 h is -7.98%.

For the compound `Cc1cccc(C(=O)N2CCc3ncnc(C4CCOC4)c3CC2)n1` (stereo unspecified), the cytotoxicity at 70.5 h was -0.465%.

For `COC(=O)C(C)NCc1ccc2[nH]c(C)c(C)c2c1` (stereo unspecified), the cytotoxicity at 70.5 h was -0.287%.

`COc1c(C2CCCN2CC(=O)Nc2nc(C)cs2)c(C)nn1C` (stereo unspecified): the cytotoxicity at 70.5 h stood at 3.79%.

For `NC(=O)NC(=O)CCN1CCC(C(=O)c2cc(F)ccc2F)CC1`, the cytotoxicity at 70.5 h was -12.1%.

On to `CCOCCn1c(=O)[nH]c2cc(C(=O)N(C)Cc3cnn(C)c3)ccc21`, for which the cytotoxicity at 70.5 h was -4.48%.

For the compound `Cc1nnc(CN2CCCC2c2ccc3c(c2)OCCCO3)n1C` (stereo unspecified), the cytotoxicity at 70.5 h is -5.99%.

As for `Cc1ccc(S(=O)(=O)N2CC[C@@H]3C[C@H](NC(=O)c4n[nH]cc4Cl)[C@@H]32)cc1`, the cytotoxicity at 70.5 h was -1.23%.

Take `COc1cccc(N2CCN(C(=O)[C@H](O)C3CCCCC3)CC2=O)c1`: the cytotoxicity at 70.5 h is -8.15%.

On to `CC(C)CC(NC(=O)CSc1ccc(F)c(Cl)c1)C(=O)O` (stereo unspecified), for which the cytotoxicity at 70.5 h is -18.4%.

In the case of `Fc1ccc(-n2cccn2)c(CN2CCCCC2CCn2ccnc2)c1` (stereo unspecified), the cytotoxicity at 70.5 h came out at 1.83%.

Consider `COc1ccc(S(=O)(=O)NC(=O)C(C)OC)c(OC)c1` (stereo unspecified), for which the cytotoxicity at 70.5 h is -2.74%.

With `Cc1noc(C)c1CN1CCOCC12CCN(c1ncccn1)CC2`, the cytotoxicity at 70.5 h is -8.87%.

As for `COC(=O)CS(=O)(=O)CCC(=O)N1CCCC1c1ccsc1` (stereo unspecified), the cytotoxicity at 70.5 h is -2.16%.

For `COCC(=O)NC(Cc1cc(N(C)C)nc(C2CC2)n1)c1ccccc1` (stereo unspecified), the cytotoxicity at 70.5 h was -2.08%.

`Cn1ccnc1-c1nc(NC2CCCC2)ncc1-c1cccc(F)c1`: the cytotoxicity at 70.5 h was 0.205%.

In the case of `O=C(Nc1c(F)cccc1F)N1CC(c2nc(C3CC3)no2)C1`, the cytotoxicity at 70.5 h is -6.67%.

With `O=C(Nc1ccccc1)c1ccc(NCc2ccncc2)nn1`, the cytotoxicity at 70.5 h was -5.4%.

Take `O=C(c1ccc[nH]1)N1CCc2c(COCC3CC3)cncc2C1`: the cytotoxicity at 70.5 h is -4.79%.

Take `O=C1CCCN1CCc1noc(-c2ccsc2)n1`: the cytotoxicity at 70.5 h was -7.91%.

For the compound `CCn1c(N)nc2cc(C(=O)NCCc3ccccc3C)cnc21`, the cytotoxicity at 70.5 h was -5.73%.

As for `CNC(=O)c1ccc(CN(C)c2ccc(C(F)(F)F)cn2)cc1`, the cytotoxicity at 70.5 h stood at 6.65%.

As to `COc1c(CC2CC(C(=O)O)=NO2)c(Br)c2c(c1OC)OCO2` (stereo unspecified), the cytotoxicity at 70.5 h is -7.83%.

Regarding `CCN(Cc1ccc2c(c1)OCO2)C(=O)CCc1c(C)nc(C)[nH]c1=O`, the cytotoxicity at 70.5 h was -4.97%.

As for `Cc1ccc2c(n1)N(CC1CC1)CCN(S(=O)(=O)C1CC1)C2`, the cytotoxicity at 70.5 h is -5.85%.

With `Cn1cnc2c1C(COCC1CC1)CN(Cc1ccc3c(c1)OCO3)C2` (stereo unspecified), the cytotoxicity at 70.5 h was 36.5%.

Turning to `CC(=O)c1c(O)n(C)c2ccc(F)cc12`, the cytotoxicity at 70.5 h was -4.46%.

With `COc1ccc(Cc2nnc(SC)o2)cc1OC`, the cytotoxicity at 70.5 h was -2.03%.

Take `NC(=O)c1nc(-c2cccc(Cl)c2)oc1N`: the cytotoxicity at 70.5 h is -14.1%.

With `CC(C)N(C)Cc1cnc2n1CCN(C(=O)Cc1ccccn1)C2`, the cytotoxicity at 70.5 h was 13.5%.

Turning to `N#Cc1ccc(CN2CCC(CCc3ccc(O)cc3)CC2)cc1`, the cytotoxicity at 70.5 h worked out at 11%.

For `Cc1ncsc1C(=O)NCCNC(=O)OC(C)(C)C`, the cytotoxicity at 70.5 h was -2.69%.

As to `Cc1cc(CCC2CN(CC3(O)CCCCC3)CCO2)ncn1` (stereo unspecified), the cytotoxicity at 70.5 h came out at 19.4%.

As to `CCN(CCNCc1ccc(C#N)cc1)C1CC1`, the cytotoxicity at 70.5 h was -6.58%.

Regarding `N#Cc1ccc(N2CCCC3(CCC(=O)N3CC3CC3)CC2)nc1` (stereo unspecified), the cytotoxicity at 70.5 h was -0.642%.

As to `COc1ccc(CC(=O)N2Cc3nccn3CC(CN(C)C)C2)cc1` (stereo unspecified), the cytotoxicity at 70.5 h was determined as 20.5%.

In the case of `COc1ccc(-n2ccc(C(=O)NCCN3CCC(C)CC3)n2)cc1`, the cytotoxicity at 70.5 h was -5.24%.
